The values that follow come from patent US20050148661A1 (priority 2002, published 2005).

One series deals with sodium channels. The series can be described thus: patch clamp in whole cell configuration on DUM neurons. Format: cell-based, cockroaches. On the technique in general: Patch clamp records ionic current or voltage across a cell membrane.
The test system of the next series is calcium channels. The series can be described thus: electrophysiological study of the effect on calcium channels. The class given is cell-based, cockroaches. How it is done: An electrophysiological study was carried out in vitro by: • a) current and voltage clamp techniques on axon isolated from cockroaches with the double oil separation technique, • b) patch clamp techniques in whole cell configuration on DUM neurons (dorsal unpair median neuron) from cockroaches (DEA Laurence Gamelin, Etude de la neurotoxicité d'un dérivé du platine, l'oxaliplatine, par une approche électrophysiologique, Paris VII (1999)).
Indeed, BAPTA, a calcium chelator, gave an identical sodium channel inhibition curve. […] This blocking of the sodium channels causes abnormalities in the action potential of the neuron, that is to say neuronal depolarization disorders and potentially disturbances in the transmission of the impulse.

The conditions of series [1]: after a cumulative dose of 750-850 mg/m^2; cited from earlier work.
Series [2] is described as follows: clinical study: prevention of the neurotoxicity of oxaliplatin by calcium and magnesium infusion (103 treatments).
The next series concerns sodium ion currents. The series can be described thus: current and voltage clamp on axon isolated from cockroaches (double oil separation technique). Format: cell-based. The conditions noted are these: applied externally; isolated cockroach axon.
The conditions of series [3]: cited from earlier work.
The nature of series [4]: clinical cases 1 to 3: oxaliplatin cycles with or without calcium and magnesium infusion.
The test system of another series is potassium ion currents. Nature of the series: current and voltage clamp on axon isolated from cockroaches (double oil separation technique). The conditions noted are these: applied externally; isolated cockroach axon. The class given is cell-based.
Series [5] can be described thus: oxalate and ions in plasma and urine of patients treated with oxaliplatin.
Setting [6] is: case 3, C6, without calcium and magnesium.
Where [7] appears, read: case 3, cycles C3, C4, C5, without calcium and magnesium.
Where [8] appears, read: patients treated with oxaliplatin.

As for `N[C@@H]1CCCC[C@H]1N.O=C([O-])C(=O)[O-].[Pt+2]` (relative stereo) [oxaliplatin, 1,2-diamine cyclohexane (trans-1)oxalatoplatinum], the “amplitude of the action potential over time” value in the series with sodium channels (current clamp, whole cell patch clamp, DUM neurons) is on record as “reduction in the amplitude of the action potential over time”. Further, the “plateau of sodium current reduction (inhibition)” value with sodium channels (voltage clamp, DUM neurons) is listed as 60%. The “reduction in the sodium current” value with sodium channels (voltage clamp, over 10 minutes) is recorded as 50%. Moreover, in the series on calcium channels, the “effect on the calcium channels” value is “no significant effect”. Besides, the “frequency of the grade 3 neuropathy” value in series [1] was 15-20%. The “total dose after which oxaliplatin can be reintroduced” value in series [2] (after prolonged treatment, even with chronic persistent neuropathy, combined with infusion of calcium and magnesium) is recorded as “up to 780 mg/m^2”. The “patients with no neurological manifestation” value in series [2] (cycle 6, in the absence of calcium and magnesium) is 12%. For the same compound, the “discontinuations linked to progression of the disease” value in series [2] (group of patients without calcium or magnesium) was 44%. The “toxic causes for discontinuation: neuropathy” value in series [2] (group without calcium and magnesium) is reported as 56%. Besides, the “modification in the sodium ion currents” value in the series on sodium ion currents is given as “no significant modification”. Besides, in series [3] (FIG. 1), the “share penetrating unchanged into the cell” value is 70%. In addition, in series [3] (first stage of metabolism), the “share of oxalate release / dichlorodachplatin formation carried out in the intracellular medium” value is recorded as 70% and the “share of oxalate release / dichlorodachplatin formation carried out in the plasma medium” value is reported as 30%. In series [4] (case 2, cycle 1, 5-FU, folinic acid + oxaliplatin 130 mg/m^2/21 days, no calcium and magnesium), the “distal and perioral paresthesia” value is on record as “grade 3”. In addition, the diarrhea result in [4] (case 2, cycle 1, no calcium and magnesium) is reported as “grade 3”. Moreover, in [4] (setting [6]), the “neuropathy, NCI” value was “grade 3” and the “neuropathy, specific scale” value came out at 3. In addition, the “duration of the incapacitating neuropathy” value in series [4] (case 3, after C6, without calcium and magnesium) is recorded as 18 months. Besides, the “distal, perioral paresthesia, NCI” value in series [4] (case 3, cycles 1 and 2, 5-FU, folinic acid + oxaliplatin 130 mg/m^2/3 weeks without calcium and magnesium) is on record as “grade 2”. Also, the “distal, perioral paresthesia, specific scale” value in [4] (case 3, cycles 1 and 2, without calcium and magnesium) was “grade 1”. Also, in series [4] (setting [7]), the “neuropathy, NCI” value is listed as “grade 2” and the “neuropathy, specific scale” value came out at 2. Moreover, in the series with potassium ion currents, the “modification in the potassium ion currents” value is reported as “no significant modification”. For the same compound, in series [5] (setting [8]), the “oxalate in plasma (normally undetectable)” value is on record as “significant concentrations”; the “plasma concentrations of calcium (total, ionized) and of magnesium (total and overall)” value is reported as “without any variation”. In [5] (within 5 hours following the start of infusion), the “calciuria, kaliuria and magnesuria” value was “rise”. The “urinary elimination of oxalate” value in series [5] (within 5 hours following the start of infusion of oxaliplatin) is listed as “substantial”.
`O=C(O)CN(CC(=O)O)c1ccccc1OCCOc1ccccc1N(CC(=O)O)CC(=O)O` [BAPTA]: in the series with sodium channels (calcium chelator tested), the “sodium channel inhibition curve compared with oxaliplatin” value is “identical”.
As to `NC1CCCCC1N.[Cl][Pt][Cl]` (centres unmarked) [Dach platin, diaminecyclohexaneplatinum], the “effect of other platinum salts (sodium channels)” value (“effect of other platinum salts” below) in the series with sodium channels is listed as “no effect”.
With `[Ca]` [calcium], the “reduction of risk of neurological manifestations at a distance from oxaliplatin administration” value in series [2] (calcium by the oral route) was “effective”.
Take `N.N.O=C([O-])C1(C(=O)[O-])CCC1.[Pt+2]` [carboplatin]: in the series with sodium channels, the “effect of other platinum salts” value was “no effect”.
Regarding `N.N.[Cl][Pt][Cl]` [cisplatin], in the series with sodium channels, the “effect of other platinum salts” value is “no effect”.
